Test results published in the NIST ThermoML archive (doi:10.1021/je300146k).
Numbers after ± are expanded uncertainties.

settings: 298.15 K; 101.33 kPa; Liquid; Vibrating tube method

Row | Compound | mass density
1 | OCc1ccccc1 [benzenemethanol] | 1043.53 ± 0.29 kg/m3
2 | CCCCCCCCCC [decane] | 726.43 ± 0.26 kg/m3
3 | CCCCCCC [heptane] | 679.71 ± 0.21 kg/m3
4 | CCCCCCCC [octane] | 698.76 ± 0.26 kg/m3

Results, then the compound that gave them:

Row | mass density | Compound
5 | 741.54 ± 0.58 kg/m3 | CCCCCCCCCCCC [dodecane]
6 | 759.27 ± 0.26 kg/m3 | CCCCCCCCCCCCCC [tetradecane]
